We go through 5 compounds from PubChem BioAssay (NCI).

Structures are written as SMILES.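 Tested at 5 concentrations; 48 h exposure; 96-well plates; endpoints linearly interpolated, else capped at highest concentration. GI50 is the concentration that inhibits growth by half. Definition used: TGI = concentration required for complete inhibition of growth.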

Some test systems named below: A549 NSCLC; COLO 205 colon; HL-60(TB) leukemia; MDA-MB-231 breast; NCI-H226 lung; NCI-H460 lung; NCI/ADR-RES ovarian; OVCAR-3 ovarian; PC-3 prostate; UACC-257 melanoma.
Common to all, as to assay: inhibition of tumour cell growth, NCI panel, 48 h

Regarding `O=[N+]([O-])c1cccc(-c2ncc(-c3ccc(Cl)cc3Cl)[nH]2)c1`, the GI50 with A549 NSCLC was 22 µM; in the assay with COLO 205 colon it was 3.45 µM; in the assay on HL-60(TB) leukemia, 3.8 µM; in the assay with MDA-MB-231 breast it was 11.7 µM; with NCI-H226 lung, 8.03 µM; with NCI-H460 lung, 7.26 µM. Besides, the GI50 was 11.6 µM with NCI/ADR-RES ovarian, 2.44 µM with OVCAR-3 ovarian, 3.69 µM in the assay on PC-3 prostate and 9.7 µM in the assay on UACC-257 melanoma. The TGI in the assay on A549 NSCLC was greater than 56.9 µM; with COLO 205 colon it was 11.4 µM; in the assay on HL-60(TB) leukemia, 17.3 µM; in the assay with MDA-MB-231 breast it was 30.9 µM; in the assay with NCI-H226 lung, 21.6 µM; in the assay on NCI-H460 lung, 30.2 µM. Further, the TGI in the assay on NCI/ADR-RES ovarian was greater than 83.3 µM; with OVCAR-3 ovarian, 5.93 µM; in the assay with PC-3 prostate, 14.9 µM; in the assay with UACC-257 melanoma, 29 µM.
Consider `C=C(C)[C@]12CC(C)C34OC(/C=C\C=C\CCCCCCCCC)(O[C@@H]1[C@@H]3[C@@H]1O[C@]1(CO)[C@@H](O)[C@]1(O)C(=O)C(C)=C[C@@H]41)O2` (some centres undefined), for which the GI50 in the assay with A549 NSCLC, with HL-60(TB) leukemia, with NCI-H460 lung and in the assay on PC-3 prostate was less than 0.0001 µM in each case. The TGI in the assay with A549 NSCLC is 20.9 µM; in the assay with COLO 205 colon, 14.1 µM; in the assay with HL-60(TB) leukemia it was greater than 20.5 µM; in the assay with MDA-MB-231 breast, 15.4 µM; in the assay with NCI-H226 lung, 33.2 µM; with NCI-H460 lung, 16 µM. In addition, the TGI was found to be 45.2 µM with NCI/ADR-RES ovarian, 16.3 µM in the assay with OVCAR-3 ovarian, 12.9 µM in the assay on PC-3 prostate and 28.5 µM with UACC-257 melanoma.
On to `COc1cc(/C=C\c2cccnc2Nc2ccccc2)cc(OC)c1OC`, for which the GI50 with A549 NSCLC was 4.21 µM; in the assay on COLO 205 colon, 4.44 µM; in the assay with HL-60(TB) leukemia, 8 µM; with MDA-MB-231 breast, 12.6 µM; with NCI-H226 lung, 10.8 µM; with NCI-H460 lung, 3.61 µM. Also, the GI50 is 4.44 µM in the assay with NCI/ADR-RES ovarian, 7.45 µM in the assay with OVCAR-3 ovarian, 7.81 µM in the assay with PC-3 prostate and 8.52 µM with UACC-257 melanoma. Besides, the TGI was greater than 100 µM in the assay with A549 NSCLC; 16.2 µM in the assay with COLO 205 colon; 36.7 µM with HL-60(TB) leukemia; greater than 100 µM in the assay with MDA-MB-231 breast; 33.2 µM with NCI-H226 lung; 26.7 µM in the assay on NCI-H460 lung. Moreover, the TGI in the assay with NCI/ADR-RES ovarian came to 63.2 µM; with OVCAR-3 ovarian, 28.7 µM; in the assay with PC-3 prostate it was 75.1 µM; with UACC-257 melanoma, 65.7 µM.
For `Cc1cc2c(cc1Cl)SC1=NN(C)C(c3ccccc3O)N1S2(=O)=O` (centres undefined), the GI50 was 86.2 µM with A549 NSCLC; greater than 100 µM in the assay on COLO 205 colon; greater than 100 µM in the assay with HL-60(TB) leukemia; 60.3 µM with MDA-MB-231 breast; greater than 100 µM in the assay with NCI-H226 lung; 37.4 µM in the assay on NCI-H460 lung. Moreover, the GI50 in the assay with NCI/ADR-RES ovarian is 39 µM; in the assay on OVCAR-3 ovarian, 46 µM; in the assay on PC-3 prostate it was greater than 100 µM; with UACC-257 melanoma, greater than 100 µM. The TGI with A549 NSCLC, in the assay with COLO 205 colon, in the assay with HL-60(TB) leukemia, with MDA-MB-231 breast, with NCI-H226 lung and in the assay with NCI-H460 lung was greater than 100 µM each time. The TGI with NCI/ADR-RES ovarian, with OVCAR-3 ovarian, with PC-3 prostate and with UACC-257 melanoma was greater than 100 µM throughout.
For `CCN(CC)CCOc1ccc(C2=C(c3ccccc3)CCc3cc(OC)ccc32)cc1`, the GI50 in the assay on A549 NSCLC is 4.02 µM; with COLO 205 colon it was 1.53 µM; in the assay on HL-60(TB) leukemia, 8.99 µM; in the assay with MDA-MB-231 breast, 2.26 µM; with NCI-H226 lung it was 3.07 µM; in the assay on NCI-H460 lung, 1.84 µM. In addition, the GI50 with NCI/ADR-RES ovarian is 3.17 µM; with OVCAR-3 ovarian it was 5.64 µM; in the assay on PC-3 prostate, 7.66 µM; with UACC-257 melanoma, 1.81 µM. The TGI with A549 NSCLC was determined as 16.2 µM; with COLO 205 colon, 3.04 µM; in the assay on HL-60(TB) leukemia, 26 µM; in the assay on MDA-MB-231 breast, 7.44 µM; with NCI-H226 lung it was 12.6 µM; in the assay on NCI-H460 lung, 3.52 µM. Moreover, the TGI with NCI/ADR-RES ovarian was 12.7 µM; with OVCAR-3 ovarian it was 15.7 µM; in the assay with PC-3 prostate, greater than 51.1 µM; with UACC-257 melanoma it was 3.6 µM.
